# Legend:
# Format in all cases: physicochemical
# [1] = Freeze-drying test, water before and after (试验例2 冷冻干燥试验); settings: 0.25 g/vial, vacuum, -40℃, 24 h
# [2] = Accelerated stability of compressed tablets (试验例3 压片稳定性); settings: round tablets 0.5 g/tablet, 40℃±2℃, 6 months, sampled at 0, 1, 2, 3, 6 months
# [3] = Accelerated stability test of the bulk compound (试验例1 稳定性考察); settings: 40℃±2℃, 6 months, sampled at 0, 1, 2, 3, 6 months
change in water content after freeze-drying [1],change in water content of compressed tablets (accelerated test) [2],change in water content (accelerated test) [3],change in water content after freeze-drying ([1]; 1/20水),change in water content of compressed tablets (accelerated test) ([2]; 1/20水),change in water content (accelerated test) ([3]; 1/20水),SMILES
明显降低,明显降低,明显降低,–,–,–,"NC(=O)c1ncn([C@@H]2O[C@H](CO)[C@@H](O)[C@H]2O)n1 [对比例1, 利巴韦林]"
–,–,–,未发生明显变化,未发生明显变化,未发生明显变化,"NC(=O)c1ncn([C@@H]2O[C@H](CO)[C@@H](O)[C@H]2O)n1 [实施例1, 1/20水利巴韦林化合物]"

# Reference: patent publication CN109134566A, “一种1/20水利巴韦林化合物” (Individual, priority 2017, dated 2019)
